Source: article PMC7588595, “Small-molecule active pharmaceutical ingredients of approved cancer therapeutics inhibit human aspartate/asparagine-β-hydroxylase” (Bioorganic & Medicinal Chemistry, 2020)
Where two headings read alike, the source gives them in different places.

Molecular target: T1, human AspH (His6-AspH315–758) (Homo sapiens, UniProt Q12797)
T1 construct: N-Terminally His6-tagged human AspH315–758 (His6-AspH315–758) was produced in Escherichia coli BL21 (DE3) cells; made in house; host or cells: Escherichia coli BL21 (DE3), pET-28a(+) vector
T1 sequence (Q12797 315-758): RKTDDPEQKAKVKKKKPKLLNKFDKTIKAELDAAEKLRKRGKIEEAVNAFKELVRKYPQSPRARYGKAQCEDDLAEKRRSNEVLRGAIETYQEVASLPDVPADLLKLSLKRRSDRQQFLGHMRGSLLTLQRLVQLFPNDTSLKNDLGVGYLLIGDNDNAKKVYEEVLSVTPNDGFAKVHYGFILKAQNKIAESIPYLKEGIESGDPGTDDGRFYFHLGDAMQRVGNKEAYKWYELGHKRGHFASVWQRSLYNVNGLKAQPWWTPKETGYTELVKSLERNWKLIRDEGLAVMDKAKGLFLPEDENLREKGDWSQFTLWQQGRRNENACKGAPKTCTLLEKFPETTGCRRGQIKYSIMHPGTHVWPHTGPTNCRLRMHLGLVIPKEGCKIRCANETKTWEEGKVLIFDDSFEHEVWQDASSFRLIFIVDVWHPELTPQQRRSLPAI
Experiment: SPE-MS AspH inhibition assay (hFX-CP101-119 substrate hydroxylation)
Assay type: biochemical

[1] = AspH-inhibitor screening, 384-well Plate 1
[2] = AspH-inhibitor screening, 384-well Plate 1, substrate conversion
[3] = AspH-inhibitor screening, Plate 1-duplicate
[4] = AspH-inhibitor screening, Plate 1-duplicate, substrate conversion

Row | Structure (SMILES) | Plate 1 (% inhibition) [1] [%] | Plate 1 (% conversion) [2] [%] | Plate 1-duplicate (% inhibition) [3] [%] | Plate 1-duplicate (% conversion) [4] [%] | further results
1 | Cc1cc(Nc2cc(CN3CCOCC3)c3nc(C)c(Cc4ccc(Cl)cc4F)n3n2)n[nH]1 [LY2784544_Gandotinib] | -63.83 | 79.23 | -64.31 | 83.93 | 
2 | CN(C)C[C@@H]1CCn2cc(c3ccccc32)C2=C(C(=O)NC2=O)c2cn(c3ccccc23)CCO1.CS(=O)(=O)O [LY 333531 mesylate_Ruboxistaurin] | 10.44 | 44.93 | -5.64 | 54.84 | 
3 | CS(=O)(=O)CCNCc1ccc(-c2ccc3ncnc(Nc4ccc(OCc5cccc(F)c5)c(Cl)c4)c3c2)o1.Cc1ccc(S(=O)(=O)O)cc1.Cc1ccc(S(=O)(=O)O)cc1 [Lapatinib, di-p-toluenesulfonate salt] |  |  |  |  | Plate 1 (% conversion): 63.38%; Plate 1 (% inhibition): -29.52%; Plate 1-duplicate (% conversion): 62.65%; Plate 1-duplicate (% inhibition): -21.39%
4 | CS(=O)(=O)CCNCc1ccc(-c2ccc3ncnc(Nc4ccc(OCc5cccc(F)c5)c(Cl)c4)c3c2)o1 [Lapatinib] | -31.93 | 64.49 | -19.57 | 61.75 | 
5 | Oc1ccc2c(c1)CC[C@H](c1ccccc1)[C@@H]2c1ccc(OCCN2CCCC2)cc1 [Lasofoxifene] | 4.47 | 47.69 | -1.73 | 52.90 | 
6 | Nc1cccc2c1CN(C1CCC(=O)NC1=O)C2=O (centres unmarked) [Lenalidomide] |  | 47.43 | 4.54 | 49.79 | 
7 | COc1cc2nccc(Oc3ccc(NC(=O)NC4CC4)c(Cl)c3)c2cc1C(N)=O [Lenvatinib] | -19.98 | 58.98 | -15.77 | 59.86 | 
8 | C[C@]12O[C@H](C[C@]1(O)CO)n1c3ccccc3c3c4c(c5c6ccccc6n2c5c31)CNC4=O [Lestaurtinib] | 20.36 | 40.35 | 16.08 | 44.07 | 
9 | N#Cc1ccc(C(c2ccc(C#N)cc2)n2cncn2)cc1 [Letrozole] | 6.85 | 46.59 | 3.67 | 50.22 | 
10 | Nc1nc(OCc2cc(Br)cs2)c2[nH]cnc2n1 [Lomeguatrib] | 5.31 | 47.30 | 8.11 | 48.02 | 
11 | O=NN(CCCl)C(=O)NC1CCCCC1 [Lomustine] | 9.88 | 45.19 | 8.61 | 47.77 | 
12 | CNC(=O)c1ccc(N2C(=S)N(c3ccc(C#N)c(C(F)(F)F)c3)C(=O)C2(C)C)cc1F [MDV3100_Enzaluamide] | -7.19 | 53.07 | -12.48 | 58.23 | 
13 | Cl.N[C@@H](Cc1ccc(N(CCCl)CCCl)cc1)C(=O)O [Melphalan hydrochloride] | 8.23 | 45.95 | 3.67 | 50.22 | 
14 | N[C@@H](Cc1ccc(N(CCCl)CCCl)cc1)C(=O)O [Melphalan] | 9.41 | 45.40 | 3.88 | 50.12 | 
15 | CO[C@@H]1[C@H](N(C)C(=O)c2ccccc2)C[C@H]2O[C@]1(C)n1c3ccccc3c3c4c(c5c6ccccc6n2c5c31)C(=O)NC4 [Midostaurin, reference compound] |  |  |  |  | IC50 (50 nM His6-AspH315–758, 1 μM hFX-CP101–119, 100 μM LAA, 3 μM 2OG, 2 μM FAS, 50 mM HEPES pH 7.5, 20 °C, read-out: IC50): 9.43 ± 3.07 µM; IC50 (read-out: IC50 at 10 μM substrate, 10 μM hFX-CP101–119 and 10 μM 2OG instead of 1 μM hFX-CP101–119 and 3 μM 2OG): 6.02 ± 1.32 µM; IC50 (read-out: IC50 at 20 μM Fe(II), 20 μM Fe(II) instead of 2 μM Fe(II)): 7.28 ± 0.9 µM; IC50 (read-out: IC50 at 200 μM 2OG, 200 μM 2OG instead of 3 μM 2OG): 12.4 ± 2.9 µM
16 | O=C1c2c(O)ccc(O)c2C(=O)c2c(NCCNCCO)ccc(NCCNCCO)c21 [Mitoxantrone] | -29.89 | 63.55 | -22.19 | 63.05 | 

More lines, main results first:

Row | Plate 1 (% inhibition) [1] [%] | Plate 1 (% conversion) [2] [%] | Plate 1-duplicate (% inhibition) [3] [%] | Plate 1-duplicate (% conversion) [4] [%] | Structure (SMILES) | further results
17 | 4.45 | 47.69 | 6.61 | 48.76 | Nc1ccccc1NC(=O)c1ccc(CNc2nccc(-c3cccnc3)n2)cc1 [MGCD0103_Mocetinostat] | 
18 | 74.52 | 15.34 | 67.97 | 18.33 | COCCNCc1ccc(-c2cc3nccc(Oc4ccc(NC(=S)NC(=O)Cc5ccc(F)cc5)cc4F)c3s2)nc1 [MGCD-265] | 
19 | 5.75 | 47.09 | 1.85 | 51.12 | C=CCn1c(=O)c2cnc(Nc3ccc(N4CCN(C)CC4)cc3)nc2n1-c1cccc(C(C)(C)O)n1 [MK1775] | 
20 | 11.87 | 44.27 | 9.89 | 47.14 | O=C(O)CC[C@H]1CC[C@@](c2cc(F)ccc2F)(S(=O)(=O)c2ccc(Cl)cc2)CC1 [MK-0752] | 
21 | -21.29 | 59.58 | -13.95 | 58.96 | NC1(c2ccc(-c3nc4ccn5c(=O)[nH]nc5c4cc3-c3ccccc3)cc2)CCC1 [MK-2206] | 
22 | 7.39 | 46.34 | 9.73 | 47.22 | Cl.NC(=O)c1cccc2cn(-c3ccc([C@@H]4CCCNC4)cc3)nc12 [MK-4827, HCl salt] | 
23 | 2.38 | 48.65 | -0.45 | 52.27 | NS(=O)(=O)OC[C@@H]1C[C@@H](n2ccc3c(N[C@H]4CCc5ccccc54)ncnc32)C[C@@H]1O [MLN4924] | 
24 | 2.09 | 48.78 | 7.11 | 48.51 | COc1cc(Nc2ncc3c(n2)-c2ccc(Cl)cc2C(c2c(F)cccc2OC)=NC3)ccc1C(=O)O [MLN8237_Alisertib] | 
25 | -15.10 | 56.72 | -11.47 | 57.73 | Cc1ccc(NC(=O)c2ccc(CN3CCN(C)CC3)cc2)cc1Nc1nc(-c2cccnc2)cs1 [Masitinib] | 
26 | -14.51 | 56.45 | 7.27 | 48.44 | CC(=O)O[C@]1(C(C)=O)CC[C@H]2[C@@H]3C=C(C)C4=CC(=O)CC[C@]4(C)[C@H]3CC[C@@]21C [Megestrol acetate] | 
27 | 7.41 | 46.33 | 10.69 | 46.74 | S=c1[nH]cnc2nc[nH]c12 [Mercaptopurine] | 
28 | 5.05 | 47.42 | 7.45 | 48.35 | CN(C)C(=N)NC(=N)N.Cl [Metformin hydrochloride aq] | 
29 | 15.11 | 42.77 | 17.38 | 43.42 | CN(Cc1cnc2nc(N)nc(N)c2n1)c1ccc(C(=O)N[C@@H](CCC(=O)O)C(=O)O)cc1 [Methotrexate] | 
30 | 0.45 | 49.54 | 1.60 | 51.25 | COc1c2occc2cc2ccc(=O)oc12 [Methoxsalen] | 
31 | 8.67 | 45.75 | 6.32 | 48.91 | C[C@H]1C[C@@H]2[C@H]([C@@H](O)C[C@@]3(C)[C@H]2CC[C@]3(O)C(=O)CO)[C@@]2(C)C=CC(=O)C=C12 [Methylprednisolone] | 
32 | 1.59 | 49.02 | 2.59 | 50.76 | CO[C@@]12[C@H](COC(N)=O)C3=C(C(=O)C(C)=C(N)C3=O)N1C[C@@H]1N[C@@H]12 [Mitomycin] | 
33 | 14.44 | 43.08 | 17.86 | 43.18 | Clc1ccc(C(c2ccccc2Cl)C(Cl)Cl)cc1 (centres unmarked) [Mitotane] | 
